How the values were obtained:
Test in all cases: relative viability (nuclei count vs DMSO), 5 days (fraction); higher = more cells survive
CAL-12T = system: CAL-12T
How it was run: (§1)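 Relative viability equals treated-well nuclei counts divided by vehicle-well nuclei counts. Counts came from 4× images of lung cancer cell lines grown in 1536-well plates for 5 days after pin-tool dosing on the day after seeding. Dosing used one drug alone or a fixed anchor-drug dose plus five library-drug doses (not always all listed) in √10 steps, and values are medians of duplicate plates.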

ChaGo-K-1 = system: ChaGo-K-1
How it was run: as §1

EMC-BAC-2 = system: EMC-BAC-2
How it was run: as §1

HCC-366 = system: HCC-366
How it was run: as §1

HCC-78 = system: HCC-78
How it was run: as §1

HOP-62 = system: HOP-62
How it was run: as §1

LC-2-ad = system: LC-2-ad
How it was run: as §1

LK-2 = system: LK-2
How it was run: as §1

NCI-H1355 = system: NCI-H1355
How it was run: as §1

NCI-H1734 = system: NCI-H1734
How it was run: as §1

NCI-H1993 = system: NCI-H1993
How it was run: as §1

NCI-H2009 = system: NCI-H2009
How it was run: as §1

NCI-H2085 = system: NCI-H2085
How it was run: as §1

NCI-H2228 = system: NCI-H2228
How it was run: as §1

NCI-H2347 = system: NCI-H2347
How it was run: as §1

NCI-H2405 = system: NCI-H2405
How it was run: as §1

NCI-H3122 = system: NCI-H3122
How it was run: as §1

NCI-H596 = system: NCI-H596
How it was run: as §1

PC-14 = system: PC-14
How it was run: as §1

RERF-LC-KJ = system: RERF-LC-KJ
How it was run: as §1

SK-MES-1 = system: SK-MES-1
How it was run: as §1

SW 1573 = system: SW 1573
How it was run: as §1

SW 900 = system: SW 900
How it was run: as §1

## CCCCCCCCCCCC1=C(O)C(=O)C=C(O)C1=O [Embelin] + Cc1cc(Nc2cc(N3CCN(C)CC3)nc(Sc3ccc(NC(=O)C4CC4)cc3)n2)n[nH]1 [Tozasertib] (partner 0.1 µM)
CAL-12T; first compound 0.08 µM
  relative viability: 0.315
CAL-12T; first compound 0.8 µM
  relative viability: 0.406
CAL-12T; first compound 2.53 µM
  relative viability: 0.372
CAL-12T; first compound 8 µM
  relative viability: 0.358
ChaGo-K-1; first compound 0.08 µM
  relative viability: 0.243
ChaGo-K-1; first compound 0.8 µM
  relative viability: 0.239
ChaGo-K-1; first compound 2.53 µM
  relative viability: 0.212
ChaGo-K-1; first compound 8 µM
  relative viability: 0.243
EMC-BAC-2; first compound 0.08 µM
  relative viability: 0.27
EMC-BAC-2; first compound 0.8 µM
  relative viability: 0.318
EMC-BAC-2; first compound 2.53 µM
  relative viability: 0.269
EMC-BAC-2; first compound 8 µM
  relative viability: 0.267
HCC-366; first compound 0.08 µM
  relative viability: 0.108
HCC-366; first compound 0.8 µM
  relative viability: 0.188
HCC-366; first compound 2.53 µM
  relative viability: 0.177
HCC-366; first compound 8 µM
  relative viability: 0.113
HCC-78; first compound 0.08 µM
  relative viability: 0.519
HCC-78; first compound 0.8 µM
  relative viability: 0.511
HCC-78; first compound 2.53 µM
  relative viability: 0.697
HCC-78; first compound 8 µM
  relative viability: 0.437
HOP-62; first compound 0.08 µM
  relative viability: 0.313
HOP-62; first compound 0.8 µM
  relative viability: 0.456
HOP-62; first compound 2.53 µM
  relative viability: 0.377
HOP-62; first compound 8 µM
  relative viability: 0.387
LC-2-ad; first compound 0.08 µM
  relative viability: 0.469
LC-2-ad; first compound 0.8 µM
  relative viability: 0.421
LC-2-ad; first compound 2.53 µM
  relative viability: 0.52
LC-2-ad; first compound 8 µM
  relative viability: 0.441
LK-2; first compound 0.08 µM
  relative viability: 0.161
LK-2; first compound 0.8 µM
  relative viability: 0.172
LK-2; first compound 2.53 µM
  relative viability: 0.147
LK-2; first compound 8 µM
  relative viability: 0.177
NCI-H1355; first compound 0.08 µM
  relative viability: 0.608
NCI-H1355; first compound 0.8 µM
  relative viability: 0.704
NCI-H1355; first compound 2.53 µM
  relative viability: 0.546
NCI-H1355; first compound 8 µM
  relative viability: 0.499
NCI-H1734; first compound 0.08 µM
  relative viability: 0.26
NCI-H1734; first compound 0.8 µM
  relative viability: 0.27
NCI-H1734; first compound 2.53 µM
  relative viability: 0.292
NCI-H1734; first compound 8 µM
  relative viability: 0.262
NCI-H1993; first compound 0.08 µM
  relative viability: 0.523
NCI-H1993; first compound 0.8 µM
  relative viability: 0.593
NCI-H1993; first compound 2.53 µM
  relative viability: 0.594
NCI-H1993; first compound 8 µM
  relative viability: 0.548
NCI-H2009; first compound 0.08 µM
  relative viability: 0.753
NCI-H2009; first compound 0.8 µM
  relative viability: 0.915
NCI-H2009; first compound 2.53 µM
  relative viability: 0.798
NCI-H2009; first compound 8 µM
  relative viability: 0.714
NCI-H2085; first compound 0.08 µM
  relative viability: 0.784
NCI-H2085; first compound 0.8 µM
  relative viability: 0.939
NCI-H2085; first compound 2.53 µM
  relative viability: 0.884
NCI-H2085; first compound 8 µM
  relative viability: 0.859
NCI-H2228; first compound 0.08 µM
  relative viability: 0.269
NCI-H2228; first compound 0.8 µM
  relative viability: 0.247
NCI-H2228; first compound 2.53 µM
  relative viability: 0.309
NCI-H2228; first compound 8 µM
  relative viability: 0.238
NCI-H2347; first compound 0.08 µM
  relative viability: 0.608
NCI-H2347; first compound 0.8 µM
  relative viability: 0.465
NCI-H2347; first compound 2.53 µM
  relative viability: 0.575
NCI-H2347; first compound 8 µM
  relative viability: 0.612
NCI-H2405; first compound 0.08 µM
  relative viability: 0.816
NCI-H2405; first compound 0.8 µM
  relative viability: 0.798
NCI-H2405; first compound 2.53 µM
  relative viability: 0.847
NCI-H2405; first compound 8 µM
  relative viability: 0.826
NCI-H3122; first compound 0.08 µM
  relative viability: 0.356
NCI-H3122; first compound 0.8 µM
  relative viability: 0.457
NCI-H3122; first compound 2.53 µM
  relative viability: 0.424
NCI-H3122; first compound 8 µM
  relative viability: 0.417
NCI-H596; first compound 0.08 µM
  relative viability: 0.821
NCI-H596; first compound 0.8 µM
  relative viability: 1.06
NCI-H596; first compound 2.53 µM
  relative viability: 0.952
NCI-H596; first compound 8 µM
  relative viability: 0.939
PC-14; first compound 0.08 µM
  relative viability: 0.612
PC-14; first compound 0.8 µM
  relative viability: 0.718
PC-14; first compound 2.53 µM
  relative viability: 0.74
PC-14; first compound 8 µM
  relative viability: 0.644
RERF-LC-KJ; first compound 0.08 µM
  relative viability: 0.567
RERF-LC-KJ; first compound 0.8 µM
  relative viability: 0.532
RERF-LC-KJ; first compound 2.53 µM
  relative viability: 0.564
RERF-LC-KJ; first compound 8 µM
  relative viability: 0.368
SK-MES-1; first compound 0.08 µM
  relative viability: 0.959
SK-MES-1; first compound 0.8 µM
  relative viability: 0.989
SK-MES-1; first compound 2.53 µM
  relative viability: 0.998
SK-MES-1; first compound 8 µM
  relative viability: 0.621
SW 1573; first compound 0.08 µM
  relative viability: 0.18
SW 1573; first compound 0.8 µM
  relative viability: 0.25
SW 1573; first compound 2.53 µM
  relative viability: 0.167
SW 1573; first compound 8 µM
  relative viability: 0.187
SW 900; first compound 0.08 µM
  relative viability: 0.438
SW 900; first compound 0.8 µM
  relative viability: 0.672
SW 900; first compound 2.53 µM
  relative viability: 0.511
SW 900; first compound 8 µM
  relative viability: 0.718
